Measured values: ChEMBL document CHEMBL3991601, “The target landscape of clinical kinase drugs” (Science, 2017)
Where a name gives a salt, the structure may show the parent alone. Active and inactive are the calls of the source.

Tests used:
[1] = target: Mitogen-activated protein kinase kinase kinase kinase 1 (Homo sapiens, UniProt Q92918)
GTP-binding protein 4 = GTP-binding protein 4 (Homo sapiens, UniProt Q9BZE4)
[2] = target: PAS domain-containing serine/threonine-protein kinase (Homo sapiens, UniProt Q96RG2)
Chain of PAS domain-containing serine/threonine-protein kinase (Q96RG2 whole entry, the tested form may be a part): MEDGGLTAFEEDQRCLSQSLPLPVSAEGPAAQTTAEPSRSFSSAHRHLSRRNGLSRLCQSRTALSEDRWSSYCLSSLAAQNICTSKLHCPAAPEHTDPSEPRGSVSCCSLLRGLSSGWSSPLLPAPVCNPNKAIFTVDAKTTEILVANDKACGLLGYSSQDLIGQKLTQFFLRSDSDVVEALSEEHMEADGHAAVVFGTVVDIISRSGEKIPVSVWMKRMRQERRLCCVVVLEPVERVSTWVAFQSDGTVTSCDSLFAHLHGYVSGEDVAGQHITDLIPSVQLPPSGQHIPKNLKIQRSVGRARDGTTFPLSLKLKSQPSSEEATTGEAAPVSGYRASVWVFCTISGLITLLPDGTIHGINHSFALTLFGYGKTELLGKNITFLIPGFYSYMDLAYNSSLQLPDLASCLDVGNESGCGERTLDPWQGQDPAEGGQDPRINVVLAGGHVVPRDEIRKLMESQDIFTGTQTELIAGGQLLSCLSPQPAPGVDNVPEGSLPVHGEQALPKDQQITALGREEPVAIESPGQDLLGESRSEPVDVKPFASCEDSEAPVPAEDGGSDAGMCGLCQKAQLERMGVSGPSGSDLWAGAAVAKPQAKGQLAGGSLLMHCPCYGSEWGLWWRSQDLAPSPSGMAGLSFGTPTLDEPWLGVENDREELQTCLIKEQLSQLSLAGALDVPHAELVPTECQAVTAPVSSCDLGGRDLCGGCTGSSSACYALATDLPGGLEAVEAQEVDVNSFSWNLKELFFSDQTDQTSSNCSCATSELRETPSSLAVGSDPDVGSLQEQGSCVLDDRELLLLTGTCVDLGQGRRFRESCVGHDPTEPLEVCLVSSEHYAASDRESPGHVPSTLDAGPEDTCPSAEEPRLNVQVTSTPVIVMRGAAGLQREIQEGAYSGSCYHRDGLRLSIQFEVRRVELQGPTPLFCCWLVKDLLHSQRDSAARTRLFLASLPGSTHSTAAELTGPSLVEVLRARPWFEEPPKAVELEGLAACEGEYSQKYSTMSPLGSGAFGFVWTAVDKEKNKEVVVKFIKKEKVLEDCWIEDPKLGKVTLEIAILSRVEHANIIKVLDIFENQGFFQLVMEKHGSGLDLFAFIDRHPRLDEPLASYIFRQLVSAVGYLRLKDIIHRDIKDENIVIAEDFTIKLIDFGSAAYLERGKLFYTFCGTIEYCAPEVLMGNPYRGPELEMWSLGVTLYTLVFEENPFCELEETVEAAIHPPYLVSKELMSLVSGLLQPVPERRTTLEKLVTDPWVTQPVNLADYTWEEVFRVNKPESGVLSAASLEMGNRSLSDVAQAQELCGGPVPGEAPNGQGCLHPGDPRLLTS

[3] = target: Ras-related protein Rab-6A (Homo sapiens, UniProt P20340)
Chain of Ras-related protein Rab-6A (P20340 whole entry): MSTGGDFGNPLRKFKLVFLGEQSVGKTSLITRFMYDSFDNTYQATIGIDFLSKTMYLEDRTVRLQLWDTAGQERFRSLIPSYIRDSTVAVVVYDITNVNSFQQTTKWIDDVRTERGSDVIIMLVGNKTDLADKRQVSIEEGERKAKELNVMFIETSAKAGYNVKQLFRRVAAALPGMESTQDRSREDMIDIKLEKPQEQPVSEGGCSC

[4] = target: Membrane-associated progesterone receptor component 1 (Homo sapiens, UniProt O00264)
Chain of Membrane-associated progesterone receptor component 1 (O00264 whole entry): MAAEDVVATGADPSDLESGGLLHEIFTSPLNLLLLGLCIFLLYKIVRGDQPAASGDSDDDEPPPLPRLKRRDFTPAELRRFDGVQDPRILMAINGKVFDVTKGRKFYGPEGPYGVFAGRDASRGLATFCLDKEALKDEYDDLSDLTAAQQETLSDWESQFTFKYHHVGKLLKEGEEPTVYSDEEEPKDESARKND

[5] = target: Cyclin-dependent kinase 4 (Homo sapiens, UniProt P11802)
Activin receptor type-2B = Activin receptor type-2B (Homo sapiens, UniProt Q13705)
Chain of Activin receptor type-2B (Q13705 whole entry): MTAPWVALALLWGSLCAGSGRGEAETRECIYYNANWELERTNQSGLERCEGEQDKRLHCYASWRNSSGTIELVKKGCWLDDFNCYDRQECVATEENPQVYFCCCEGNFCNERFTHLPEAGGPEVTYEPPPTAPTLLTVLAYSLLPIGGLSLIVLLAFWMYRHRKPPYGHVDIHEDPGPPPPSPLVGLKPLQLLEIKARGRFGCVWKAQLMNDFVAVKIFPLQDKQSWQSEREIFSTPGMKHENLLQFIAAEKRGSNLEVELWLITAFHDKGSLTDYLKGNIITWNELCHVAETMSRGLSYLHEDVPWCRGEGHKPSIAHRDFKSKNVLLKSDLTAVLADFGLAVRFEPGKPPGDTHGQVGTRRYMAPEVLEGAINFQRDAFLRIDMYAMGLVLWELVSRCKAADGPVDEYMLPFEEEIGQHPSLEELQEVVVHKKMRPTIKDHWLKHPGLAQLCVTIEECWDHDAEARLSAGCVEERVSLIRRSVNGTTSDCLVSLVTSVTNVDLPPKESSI

[6] = target: Tyrosine-protein kinase CSK (Homo sapiens, UniProt P41240)
[7] = target: T1, Adenine phosphoribosyltransferase (Homo sapiens, UniProt P07741)
T1 sequence (P07741 whole entry): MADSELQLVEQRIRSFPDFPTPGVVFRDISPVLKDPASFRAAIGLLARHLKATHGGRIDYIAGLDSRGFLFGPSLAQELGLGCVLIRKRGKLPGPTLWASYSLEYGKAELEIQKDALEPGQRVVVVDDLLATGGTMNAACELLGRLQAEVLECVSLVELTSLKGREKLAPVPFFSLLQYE

[8] = target: GTP-binding nuclear protein Ran (Homo sapiens, UniProt P62826)
[9] = target: T2, Mitogen-activated protein kinase 15 (Homo sapiens, UniProt Q8TD08)
T2 sequence (Q8TD08 whole entry): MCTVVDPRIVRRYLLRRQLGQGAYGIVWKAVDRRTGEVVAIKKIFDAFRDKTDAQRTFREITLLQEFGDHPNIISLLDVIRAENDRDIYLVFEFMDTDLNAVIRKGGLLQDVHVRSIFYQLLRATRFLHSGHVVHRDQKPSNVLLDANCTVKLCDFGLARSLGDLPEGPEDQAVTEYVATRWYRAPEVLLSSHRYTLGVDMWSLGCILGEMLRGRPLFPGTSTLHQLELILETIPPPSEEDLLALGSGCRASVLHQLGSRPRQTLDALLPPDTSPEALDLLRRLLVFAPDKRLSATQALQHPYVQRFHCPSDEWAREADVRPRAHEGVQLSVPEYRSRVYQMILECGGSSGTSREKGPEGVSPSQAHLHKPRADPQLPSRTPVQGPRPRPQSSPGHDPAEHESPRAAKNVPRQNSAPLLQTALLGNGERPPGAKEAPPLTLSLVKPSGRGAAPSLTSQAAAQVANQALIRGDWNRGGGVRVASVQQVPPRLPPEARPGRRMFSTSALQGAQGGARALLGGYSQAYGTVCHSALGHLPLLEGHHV

[10] = target: Citron Rho-interacting kinase (Homo sapiens, UniProt O14578)
Chain of Citron Rho-interacting kinase (O14578 whole entry): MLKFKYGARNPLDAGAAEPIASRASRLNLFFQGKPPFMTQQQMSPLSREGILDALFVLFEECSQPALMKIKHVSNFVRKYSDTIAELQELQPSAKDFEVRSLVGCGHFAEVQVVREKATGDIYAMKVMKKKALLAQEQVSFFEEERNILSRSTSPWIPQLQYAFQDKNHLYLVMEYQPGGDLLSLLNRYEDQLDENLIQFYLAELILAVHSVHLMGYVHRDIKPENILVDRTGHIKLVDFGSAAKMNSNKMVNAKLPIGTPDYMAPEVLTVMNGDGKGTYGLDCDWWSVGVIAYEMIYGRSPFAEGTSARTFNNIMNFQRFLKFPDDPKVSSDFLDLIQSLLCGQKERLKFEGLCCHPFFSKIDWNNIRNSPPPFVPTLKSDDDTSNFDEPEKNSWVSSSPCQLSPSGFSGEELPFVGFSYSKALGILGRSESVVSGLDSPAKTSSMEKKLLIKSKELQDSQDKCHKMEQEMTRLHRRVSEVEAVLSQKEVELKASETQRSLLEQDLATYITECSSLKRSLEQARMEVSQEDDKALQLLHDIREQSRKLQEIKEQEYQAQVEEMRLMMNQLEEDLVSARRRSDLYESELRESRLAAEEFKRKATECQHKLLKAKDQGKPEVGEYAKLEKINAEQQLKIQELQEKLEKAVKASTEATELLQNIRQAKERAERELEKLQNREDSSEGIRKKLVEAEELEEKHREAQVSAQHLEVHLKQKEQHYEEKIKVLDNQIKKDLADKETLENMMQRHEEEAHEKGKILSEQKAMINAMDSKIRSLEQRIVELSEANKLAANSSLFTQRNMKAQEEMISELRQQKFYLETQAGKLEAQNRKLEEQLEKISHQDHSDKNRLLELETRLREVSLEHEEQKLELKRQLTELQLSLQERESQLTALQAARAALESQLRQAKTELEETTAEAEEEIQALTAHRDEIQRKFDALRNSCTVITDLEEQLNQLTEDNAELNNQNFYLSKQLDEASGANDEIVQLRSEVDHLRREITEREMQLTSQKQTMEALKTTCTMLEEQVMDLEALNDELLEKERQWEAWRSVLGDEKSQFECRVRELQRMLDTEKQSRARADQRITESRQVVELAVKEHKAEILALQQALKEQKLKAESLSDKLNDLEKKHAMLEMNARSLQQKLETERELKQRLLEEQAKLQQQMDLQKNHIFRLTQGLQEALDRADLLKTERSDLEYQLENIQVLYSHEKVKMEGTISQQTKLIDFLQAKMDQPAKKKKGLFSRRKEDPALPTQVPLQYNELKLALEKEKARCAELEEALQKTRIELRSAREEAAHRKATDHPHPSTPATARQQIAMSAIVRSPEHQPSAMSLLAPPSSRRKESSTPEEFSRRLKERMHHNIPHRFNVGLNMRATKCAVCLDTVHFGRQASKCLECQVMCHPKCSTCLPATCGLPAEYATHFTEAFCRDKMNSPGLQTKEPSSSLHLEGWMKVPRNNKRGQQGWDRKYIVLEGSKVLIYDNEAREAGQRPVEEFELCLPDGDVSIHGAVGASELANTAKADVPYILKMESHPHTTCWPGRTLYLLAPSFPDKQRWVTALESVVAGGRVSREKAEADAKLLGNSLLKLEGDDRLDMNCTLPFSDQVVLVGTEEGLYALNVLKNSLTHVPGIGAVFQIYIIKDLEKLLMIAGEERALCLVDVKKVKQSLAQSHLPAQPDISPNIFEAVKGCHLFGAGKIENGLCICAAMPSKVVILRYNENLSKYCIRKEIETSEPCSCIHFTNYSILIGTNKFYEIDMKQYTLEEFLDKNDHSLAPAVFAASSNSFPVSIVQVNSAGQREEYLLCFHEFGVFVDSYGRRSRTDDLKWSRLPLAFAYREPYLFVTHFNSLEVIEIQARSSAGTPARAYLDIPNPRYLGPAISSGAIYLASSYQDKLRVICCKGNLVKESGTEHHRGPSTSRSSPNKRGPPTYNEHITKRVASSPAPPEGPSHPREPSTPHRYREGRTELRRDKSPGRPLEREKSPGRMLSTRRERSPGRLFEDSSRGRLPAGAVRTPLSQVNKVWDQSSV

[11] = target: Cyclin-dependent kinase 5 (Homo sapiens, UniProt Q00535)
[12] = target: T3, Serine/threonine-protein kinase PLK4 (Homo sapiens, UniProt O00444)
T3 sequence (O00444 whole entry): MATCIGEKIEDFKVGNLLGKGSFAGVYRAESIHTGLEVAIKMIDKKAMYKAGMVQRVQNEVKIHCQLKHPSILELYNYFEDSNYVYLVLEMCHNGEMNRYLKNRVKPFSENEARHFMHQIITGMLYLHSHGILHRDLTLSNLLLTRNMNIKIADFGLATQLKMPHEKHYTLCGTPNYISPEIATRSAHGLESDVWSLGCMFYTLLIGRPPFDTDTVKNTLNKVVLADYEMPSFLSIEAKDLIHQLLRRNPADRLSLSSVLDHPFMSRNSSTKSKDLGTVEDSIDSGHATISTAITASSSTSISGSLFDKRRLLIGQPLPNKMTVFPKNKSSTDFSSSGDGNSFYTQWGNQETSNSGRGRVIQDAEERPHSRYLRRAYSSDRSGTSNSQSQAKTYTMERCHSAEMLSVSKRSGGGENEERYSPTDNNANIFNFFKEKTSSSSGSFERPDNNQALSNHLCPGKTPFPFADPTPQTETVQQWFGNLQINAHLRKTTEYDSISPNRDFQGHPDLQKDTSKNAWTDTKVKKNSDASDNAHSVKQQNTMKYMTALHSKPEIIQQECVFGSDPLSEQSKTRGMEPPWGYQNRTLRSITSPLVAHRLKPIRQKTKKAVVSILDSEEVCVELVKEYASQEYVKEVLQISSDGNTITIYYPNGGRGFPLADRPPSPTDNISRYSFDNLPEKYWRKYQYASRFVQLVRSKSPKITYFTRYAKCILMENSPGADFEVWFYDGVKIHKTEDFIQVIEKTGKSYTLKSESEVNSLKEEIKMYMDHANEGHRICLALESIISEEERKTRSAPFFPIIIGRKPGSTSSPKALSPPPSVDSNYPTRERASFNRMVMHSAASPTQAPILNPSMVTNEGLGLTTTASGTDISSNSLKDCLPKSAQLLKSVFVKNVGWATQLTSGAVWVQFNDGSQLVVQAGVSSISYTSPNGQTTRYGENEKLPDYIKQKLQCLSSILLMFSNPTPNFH

[13] = target: Glycogen synthase kinase-3 beta (Homo sapiens, UniProt P49841)
[14] = target: Casein kinase I isoform delta (Homo sapiens, UniProt P48730)
[15] = target: Calcium/calmodulin-dependent protein kinase type II subunit gamma (Homo sapiens, UniProt Q13555)
LIM domain kinase 1 = LIM domain kinase 1 (Homo sapiens, UniProt P53667)
[16] = target: RAC-alpha serine/threonine-protein kinase (Homo sapiens, UniProt P31749)
Note: in the data inactive means no Kd found up to 30 µM.

Chain of Mitogen-activated protein kinase kinase kinase kinase 1 (Q92918 whole entry): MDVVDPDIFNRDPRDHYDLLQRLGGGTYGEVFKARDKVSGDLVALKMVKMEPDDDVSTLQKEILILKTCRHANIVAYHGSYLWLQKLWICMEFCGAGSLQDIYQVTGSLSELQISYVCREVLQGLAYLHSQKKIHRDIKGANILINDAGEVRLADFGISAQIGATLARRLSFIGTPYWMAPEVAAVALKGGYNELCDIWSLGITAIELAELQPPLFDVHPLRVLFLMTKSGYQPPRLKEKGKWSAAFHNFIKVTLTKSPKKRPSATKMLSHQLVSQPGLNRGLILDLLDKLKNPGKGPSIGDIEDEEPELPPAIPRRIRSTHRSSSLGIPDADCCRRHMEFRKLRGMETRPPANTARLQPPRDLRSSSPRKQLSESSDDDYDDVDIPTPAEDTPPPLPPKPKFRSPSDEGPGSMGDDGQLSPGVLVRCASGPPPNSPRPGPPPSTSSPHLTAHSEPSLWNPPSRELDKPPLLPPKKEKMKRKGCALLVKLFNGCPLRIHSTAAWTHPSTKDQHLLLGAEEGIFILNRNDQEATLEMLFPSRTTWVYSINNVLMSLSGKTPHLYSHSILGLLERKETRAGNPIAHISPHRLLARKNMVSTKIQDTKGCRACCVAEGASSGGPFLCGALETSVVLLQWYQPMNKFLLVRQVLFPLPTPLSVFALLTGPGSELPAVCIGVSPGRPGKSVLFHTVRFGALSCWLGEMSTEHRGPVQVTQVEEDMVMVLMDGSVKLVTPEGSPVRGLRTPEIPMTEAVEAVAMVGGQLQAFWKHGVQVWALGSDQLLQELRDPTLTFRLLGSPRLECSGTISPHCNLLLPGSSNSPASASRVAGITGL

| SMILES | Kd [1] | Kd (GTP-binding protein 4) | Kd [2] | Kd [3] | Kd [4] | Kd [5] | Kd (Activin receptor type-2B) | Kd [6] | Kd [7] | Kd [8] | Kd [10] | Kd [11] | Kd [12] | Kd [13] | Kd [14] | Kd [15] | Kd (LIM domain kinase 1) | Kd [16] | Kd [9] |
| --- | --- | --- | --- | --- | --- | --- | --- | --- | --- | --- | --- | --- | --- | --- | --- | --- | --- | --- | --- |
| CNC(=O)c1ccccc1Sc1ccc2c(/C=C/c3ccccn3)n[nH]c2c1 [AXITINIB] | – | > 30 µM (inactive) | > 30 µM (inactive) | > 30 µM (inactive) | – | – | – | – | > 30 µM (inactive) | > 30 µM (inactive) | – | – | – | – | – | – | – | – | – |
| Cc1[nH]c(/C=C2\C(=O)Nc3ccccc32)c(C)c1CCC(=O)O [ORANTINIB] | 2.02 µM (active) | > 30 µM (inactive) | > 30 µM (inactive) | – | > 30 µM (inactive) | > 30 µM (inactive) | > 30 µM (inactive) | > 30 µM (inactive) | – | > 30 µM (inactive) | > 30 µM (inactive) | – | – | – | – | – | – | – | > 30 µM (inactive) |
| N#CC[C@H](C1CCCC1)n1cc(-c2ncnc3[nH]ccc23)cn1 [RUXOLITINIB] | – | > 30 µM (inactive) | > 30 µM (inactive) | – | – | – | – | – | – | > 30 µM (inactive) | – | – | – | – | – | 0.259 µM (active) | – | – | – |
| C[C@@H](N)c1ccc(C(=O)Nc2ccnc3[nH]ccc23)cc1 [Y-39983] | > 30 µM (inactive) | > 30 µM (inactive) | > 30 µM (inactive) | > 30 µM (inactive) | – | > 30 µM (inactive) | > 30 µM (inactive) | > 30 µM (inactive) | > 30 µM (inactive) | > 30 µM (inactive) | 0.033 µM (active) | > 30 µM (inactive) | > 30 µM (inactive) | 0.924 µM (active) | > 30 µM (inactive) | > 30 µM (inactive) | > 30 µM (inactive) | > 30 µM (inactive) | > 30 µM (inactive) |

Second part, led by results:

| Kd [1] | Kd (GTP-binding protein 4) | Kd [2] | Kd [3] | Kd [4] | Kd [5] | Kd (Activin receptor type-2B) | Kd [6] | Kd [7] | Kd [8] | Kd [10] | Kd [11] | Kd [12] | Kd [13] | Kd [14] | Kd [15] | Kd (LIM domain kinase 1) | Kd [16] | SMILES | Kd [9] |
| --- | --- | --- | --- | --- | --- | --- | --- | --- | --- | --- | --- | --- | --- | --- | --- | --- | --- | --- | --- |
| > 30 µM (inactive) | > 30 µM (inactive) | > 30 µM (inactive) | > 30 µM (inactive) | > 30 µM (inactive) | > 30 µM (inactive) | > 30 µM (inactive) | > 30 µM (inactive) | > 30 µM (inactive) | > 30 µM (inactive) | – | – | – | – | – | – | – | – | COc1cc(Nc2ncc3c(n2)-c2ccc(Cl)cc2C(c2c(F)cccc2OC)=NC3)ccc1C(=O)O [ALISERTIB] | > 30 µM (inactive) |
| > 30 µM (inactive) | > 30 µM (inactive) | > 30 µM (inactive) | > 30 µM (inactive) | > 30 µM (inactive) | > 30 µM (inactive) | > 30 µM (inactive) | > 30 µM (inactive) | – | > 30 µM (inactive) | > 30 µM (inactive) | > 30 µM (inactive) | > 30 µM (inactive) | > 30 µM (inactive) | > 30 µM (inactive) | > 30 µM (inactive) | > 30 µM (inactive) | > 30 µM (inactive) | CCS(=O)(=O)N1CCN(c2ccc(Nc3ncc(C(N)=O)c(NC4CC4)n3)cc2)CC1 [Cerdulatinib Hydrochloride] | > 30 µM (inactive) |
| – | > 30 µM (inactive) | > 30 µM (inactive) | > 30 µM (inactive) | > 30 µM (inactive) | – | > 30 µM (inactive) | – | > 30 µM (inactive) | > 30 µM (inactive) | – | – | – | – | – | – | – | – | C[C@@H](Oc1cc(-n2cnc3ccc(CN4CCN(C)CC4)cc32)sc1C(N)=O)c1ccccc1C(F)(F)F [GSK-461364] | – |
| > 30 µM (inactive) | > 30 µM (inactive) | > 30 µM (inactive) | > 30 µM (inactive) | > 30 µM (inactive) | > 30 µM (inactive) | > 30 µM (inactive) | > 30 µM (inactive) | > 30 µM (inactive) | > 30 µM (inactive) | > 30 µM (inactive) | – | – | – | – | – | – | – | NC(=O)c1c(OCc2c(F)cc(Br)cc2F)nsc1NC(=O)NCCCCN1CCCC1 [OSI-632] | > 30 µM (inactive) |
| > 30 µM (inactive) | – | > 30 µM (inactive) | > 30 µM (inactive) | > 30 µM (inactive) | > 30 µM (inactive) | > 30 µM (inactive) | > 30 µM (inactive) | > 30 µM (inactive) | > 30 µM (inactive) | > 30 µM (inactive) | – | – | – | – | – | – | – | CC(=O)NCC(=O)N1[C@@H]2CC[C@H]1c1ccc(Nc3ncc(C(F)(F)F)c(NC4CCC4)n3)cc12 [PF-03814735] | > 30 µM (inactive) |
| – | > 30 µM (inactive) | > 30 µM (inactive) | > 30 µM (inactive) | > 30 µM (inactive) | – | – | – | > 30 µM (inactive) | > 30 µM (inactive) | – | – | – | – | – | – | – | – | O=C(NOCCO)c1cc(CN2OCCCC2=O)c(F)c(F)c1Nc1ccc(I)cc1F [RO-4987655] | – |
